Results on 12 molecules are retold here after article PMC9916356, “Design, Synthesis and Pharmacological Evaluation of New Quinoline-Based Panx-1 Channel Blockers” (International Journal of Molecular Sciences, 2023).

By IC50 is commonly meant the concentration at which inhibition is half-maximal. Higher therefore signals lower potency.

The target of data set [1] is T1, Panx-1 (Mus musculus, UniProt Q9JIP4).
T1 construct: gene Panx1
The experiment in a line: two-electrode voltage clamp, Xenopus laevis oocytes expressing mouse pannexin1. Type of data set: cell-based. In general terms: Two-electrode voltage clamp is typically applied to oocytes expressing channels or transporters.

The target in data set [2] is T1, Panx-1. The experiment in a line: two-electrode voltage clamp, Xenopus laevis oocytes, single dose […]. Type of data set: cell-based.
A further data set can be described thus: in vitro. More on the design: stability in human plasma at 37 °C, HPLC-MS/MS, half-life from first-order degradation plot. The note with it: plasma; human plasma; read-out: H-pl. How it is done: (§1) In these assays, the variation of analytes concentration at four different incubation times both in PBS and in human plasma samples was monitored to evaluate their susceptibility toward spontaneous or enzymatic hydrolysis, respectively. By plotting any variation of analyte concentration vs. the incubation time, the corresponding degradation profiles in tested matrices were obtained. The analyte concentration (1 µM) used during the stability tests is generally smaller than its Michaelis–Menten constant (KM), and the enzymatic degradation rate is described by a first-order kinetic. Therefore, by plotting the natural logarithm of the quantitative data versus the incubation time, a linear function can be used, and its slope represents the degradation rate (k). Accordingly, with the linear function, the half-life (t1/2) of each tested compound can be calculated as follows: t1/2=[…] The plots of the natural logarithm of the quantitative data versus the incubation time of all the studied compounds were analyzed. […] Parameters beyond this value will be indicated as >120 min. […] The degradation plots in PBS and human plasma of our ester compounds are reported in Supporting Information (Figures S1–S6 and Table S1).

Another data set can be described thus: physchem. Also noted: chemical stability in PBS at 37 °C, HPLC-MS/MS, half-life from first-order degradation plot. The note with it: PBS. How it is done:
as §1

Data set [3] concerns the target T1, Panx-1. The data set is described as follows: two-electrode voltage clamp in oocytes, […] CBX applied in each experiment. The note with it: read-out: % inhibition at 100 μM. The class given is cell-based.

Like-named read-outs stand apart in the source and are kept apart here.

T1 sequence (Q9JIP4 whole entry): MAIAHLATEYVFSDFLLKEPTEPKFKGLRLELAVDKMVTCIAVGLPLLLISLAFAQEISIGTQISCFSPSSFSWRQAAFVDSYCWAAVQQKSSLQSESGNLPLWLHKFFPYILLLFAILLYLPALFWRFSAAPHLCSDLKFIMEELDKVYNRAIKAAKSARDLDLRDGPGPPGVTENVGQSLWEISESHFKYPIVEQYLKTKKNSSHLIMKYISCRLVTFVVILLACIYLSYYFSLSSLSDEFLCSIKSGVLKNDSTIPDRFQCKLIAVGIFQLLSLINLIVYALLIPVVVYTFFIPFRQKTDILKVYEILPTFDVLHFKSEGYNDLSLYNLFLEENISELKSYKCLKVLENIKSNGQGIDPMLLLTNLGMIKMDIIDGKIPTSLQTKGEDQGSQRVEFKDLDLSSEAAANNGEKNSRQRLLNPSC

On to `O=C(O)c1ccc(Cn2cc(C(=O)O)c(=O)c3cc([N+](=O)[O-])ccc32)cc1` [6g, 1-(4-Carboxybenzyl)-6-nitro-4-oxo-1,4-dihydroquinoline-3-carboxylic acid], for which 1.5 µM corresponded to half-maximal inhibition at Panx-1 [1] (IC50).

At Panx-1 [1], `O=C(O)c1ccc(Nc2c(C(=O)O)cnc3ccccc23)cc1` [13g, 4-[(4-Carboxyphenyl)amino]quinoline-3-carboxylic acid] came in with an IC50 of 15.5 µM.

Consider `CCCNS(=O)(=O)c1ccc(Nc2c(C(=O)O)cnc3ccccc23)cc1` [13d, 4-[4-(N-Propylsulfamoyl)phenyl]aminoquinoline-3-carboxylic acid], for which the inhibition at 50 µM on Panx-1 [2] (read-out: TABLE 2) is 66 ± 4%.

For the molecule `CCOC(=O)c1cn(CCCCCc2ccccc2)c2ccc([N+](=O)[O-])cc2c1=O` [4e, Ethyl 6-nitro-4-oxo-1-(5-phenylpentyl)-1,4-dihydroquinoline-3-carboxylate], the half-life at 1 µM in the data set “in vitro” and in the data set “physchem” was > 2 h each time.

As for `CC1(C)[C@@H](OC(=O)CCC(=O)O)CC[C@]2(C)[C@H]3C(=O)C=C4[C@@H]5C[C@@](C)(C(=O)O)CC[C@]5(C)CC[C@@]4(C)[C@]3(C)CC[C@@H]12` [CBX, carbenoxolone], the inhibition at 100 µM at Panx-1 [3] came out at 100%.

Regarding `CCOC(=O)c1cn(CCc2ccccc2)c2ccc([N+](=O)[O-])cc2c1=O` [4b, Ethyl 6-nitro-4-oxo-1-phenethyl-1,4-dihydroquinoline-3-carboxylate], the half-life at 1 µM in “in vitro” and in “physchem” was > 2 h in each case.

Take `CCOC(=O)c1cn(CCCCc2ccccc2)c2ccc([N+](=O)[O-])cc2c1=O` [4d, Ethyl 6-nitro-4-oxo-1-(4-phenylbutyl)-1,4-dihydroquinoline-3-carboxylate]: the half-life at 1 µM in “in vitro” and in “physchem” was > 2 h in each case.

In the case of `Nc1ccc2c(c1)c(=O)c(C(=O)O)cn2Cc1ccccc1` [compound 8, 6-Amino-1-benzyl-4-oxo-1,4-dihydroquinoline-3-carboxylic acid], on Panx-1 [2] (read-out: TABLE 1), the inhibition at 50 µM came to 57 ± 5.9%.

Molecule `NS(=O)(=O)c1ccc(Cn2cc(C(=O)O)c(=O)c3cc([N+](=O)[O-])ccc32)cc1` [6f, 6-Nitro-4-oxo-1-(4-sulfamoylbenzyl)-1,4-dihydroquinoline-3-carboxylic acid] showed an IC50 at Panx-1 [1] of 3 µM.

As to `O=C(O)c1cn(Cc2ccccc2)c2ccc([N+](=O)[O-])cc2c1=O` [6a, 1-Benzyl-6-nitro-4-oxo-1,4-dihydroquinoline-3-carboxylic acid], the inhibition at 50 µM on Panx-1 [2] (read-out: TABLE 1) stood at 53 ± 2.9%.

On Panx-1 [1], `CCCN(CCC)S(=O)(=O)c1ccc(Nc2c(C(=O)O)cnc3ccccc23)cc1` [13e, 4-[4-(N,N-Dipropylsulfamoyl)phenyl]aminoquinoline-3-carboxylic acid] came in with an IC50 of 4.2 µM.

`CCOC(=O)c1cn(Cc2ccc(S(N)(=O)=O)cc2)c2ccc([N+](=O)[O-])cc2c1=O` [4f, Ethyl 6-nitro-4-oxo-1-(4-sulfamoylbenzyl)-1,4-dihydroquinoline-3-carboxylate]: the half-life at 1 µM in the data set “in vitro” and in the data set “physchem” was > 2 h throughout.
